# Reference: PMC10573954, “Crystal Structure of DNA Replication Protein SsbA Complexed with the Anticancer Drug 5-Fluorouracil” (International Journal of Molecular Sciences, 2023)
# What was measured:
# [1] = target: T1, SsbA (SaSsbA), single-stranded DNA-binding protein (Staphylococcus aureus, UniProt A0A0D1JHQ1, R18A); assay: intrinsic fluorescence quenching titration
# T1 construct: gene ssb; recombinant His-tagged SaSsbA R18A (pET21b)
# T1 sequence (A0A0D1JHQ1 1-167 R18A): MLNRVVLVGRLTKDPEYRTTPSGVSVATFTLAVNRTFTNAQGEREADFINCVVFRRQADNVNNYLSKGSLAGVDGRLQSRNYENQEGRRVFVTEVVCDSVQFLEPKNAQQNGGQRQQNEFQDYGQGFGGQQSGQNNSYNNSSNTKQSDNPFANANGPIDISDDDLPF
# [2] = target: T2, SsbA (SaSsbA), single-stranded DNA-binding protein (Staphylococcus aureus, UniProt A0A0D1JHQ1); assay: crystal structure ([…] Å) and intrinsic fluorescence quenching titration
# T2 construct: gene ssb; recombinant His-tagged SaSsbA (167 aa, pET21b); aa 105–167 not observed in the crystal structure
structure (smiles),measurement,setting,value
"O=c1[nH]cc(F)c(=O)[nH]1 [5-FU, 5-fluorouracil]",Kd,[1],498 ± 13.5 µM
same,Kd,[2],55.9 ± 0.7 µM
